Source: the supplement of paper PMC8671470
± gives the standard deviation of the averaged measurements.

Assays:
Details in all cases: 72 h
MV4-11 [1] = test system: MV4-11
Method in brief: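 Each of fifteen myeloid leukaemia cell lines was seeded in RPMI 1640 at a density titrated to its linear growth range. The cells were incubated for 72 h at 37 °C and 5% CO2 with compounds at five tenfold doses from 1 to 10,000 nM, in duplicate. After ATP luminescence was normalised to vehicle and to a positive control at 10 µM, four-parameter log-logistic curves were fitted. These curves gave the IC50.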

HL-60 [2] = test: cell viability (% survival relative to DMSO control); higher = less cytotoxic
Method in brief: (§1)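 Area under the curve, where listed, was derived from four-parameter log-logistic fits with drc and PharmacoGx. These fits used CellTiter-Glo viability from HL-60 cells in RPMI 1640 with 10% FBS, normalised to DMSO wells and wells holding 10 μM proteasome inhibitor. The full library was rescreened on 384-well plates in duplicate at five tenfold concentrations, 1–10,000 nM, with DMSO or 100 nM of one of three metabolic inhibitors, for 72 h at 37 °C, 5% CO2.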

BV-173 = test: cell viability (% survival relative to DMSO control, bortezomib = 0%); higher = less cytotoxic
Method in brief: (§2)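 Percent survival figures are means of duplicate wells. They were obtained by CellTiter-Glo luminescence after 10 AML and 5 CML cell lines spent 72 h at 37 °C with 5% CO2 in 384-well plates with compounds at 1, 10, 100, 1000 or 10000 nM. Vehicle was set to 100% and a 10 µM positive control to 0%.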

HEL = test: as above
Method in brief: as §2

HL-60 [3] = test: as above
Method in brief: as §2

K-562 = test: as above
Method in brief: as §2

KCL-22 = test: as above
Method in brief: as §2

KG-1 = test: as above
Method in brief: as §2

KU-812 = test: as above
Method in brief: as §2

LAMA-84 = test: as above
Method in brief: as §2

ML-2 = test: as above
Method in brief: as §2

MOLM-13 = test: as above
Method in brief: as §2

MV4-11 [4] = test: as above
Method in brief: as §2

Mono-Mac-6 = test: as above
Method in brief: as §2

NOMO-1 = test: as above
Method in brief: as §2

SHI-1 = test: as above
Method in brief: as §2

THP-1 = test: as above
Method in brief: as §2

HL-60 [5] = test: area under dose-response curve (viability, 1 nM-10 uM) (fraction (0-1)); higher = more sensitive
Method in brief: as §1

CCOP(=O)(OCC)C(=Cc1cc(C(C)(C)C)c(O)c(C(C)(C)C)c1)P(=O)(OCC)OCC
Details	IC50 (cell viability) [µM]
MV4-11 [1]	> 10

cell viability [%], HL-60 [2]
Details	0.001 µM	0.01 µM	0.1 µM	1 µM	10 µM
co-treatment: AZD3965 100 nM	95.9 ± 1.6	101 ± 5.9	109 ± 18	101 ± 7	98 ± 5.1
co-treatment: DMSO vehicle	100 ± 8	105 ± 2.3	99.5 ± 2.6	104 ± 4	105 ± 1.3
co-treatment: GSK2194069 100 nM	101 ± 4.7	104 ± 5	102 ± 2	102 ± 1.5	94.5 ± 9
co-treatment: pictilisib 100 nM	96.4 ± 4	99.31 ± 0.66	107 ± 8.3	94.9 ± 2	103 ± 7.4

Details	area under dose-response curve, co-treatment: AZD3965 100 nM	area under dose-response curve, co-treatment: DMSO vehicle	area under dose-response curve, co-treatment: GSK2194069 100 nM	area under dose-response curve, co-treatment: pictilisib 100 nM	cell viability, 1 nM [%]	cell viability, 10 nM [%]	cell viability, 100 nM [%]	cell viability, 1000 nM [%]	cell viability, 10000 nM [%]
BV-173	–	–	–	–	92.7	96.8	121	89.9	64.5
HEL	–	–	–	–	92.1	95.8	109	89.8	108
HL-60 [3]	–	–	–	–	93.9	94.9	159	65.9	83.4
HL-60 [5]	< 0.0301	< 0.0301	< 0.0301	< 0.0301	–	–	–	–	–
K-562	–	–	–	–	91.1	90.4	118	101	90.1
KCL-22	–	–	–	–	98.7	108	125	108	94
KG-1	–	–	–	–	96.3	91.2	121	91.2	67
KU-812	–	–	–	–	98.4	92.3	123	85.5	73.6
LAMA-84	–	–	–	–	94.8	99.1	114	97.6	94.1
ML-2	–	–	–	–	95.1	98.1	134	78.9	80
MOLM-13	–	–	–	–	76	81.8	122	88.9	86.5
MV4-11 [4]	–	–	–	–	94.2	90.7	117	104	82
Mono-Mac-6	–	–	–	–	93.3	99.4	129	75.2	57.6
NOMO-1	–	–	–	–	97	99.1	118	91.4	93.4
SHI-1	–	–	–	–	100	89.7	123	94.9	98.5
THP-1	–	–	–	–	96.7	98.1	115	83.9	85.1
